Legend:
PC12 cells [1] = test: AMPK inhibitor compound C against the protective effect of artemether in PC12 cells (MTT, flow cytometry, Western blot); assay type: cell-based
Description: Apoptosis was evaluated by flow cytometry. PC12 cells were seeded into 6-well plates, treated, digested with 0.25% trypsin, harvested, washed twice with ice cold 1×PBS and suspended with buffer. […] were stained with 5 μL Annexin-V-FITC and 10 μL propidium iodide solution, incubated for 30 min in the dark, and the apoptotic cells in each group were determined and analyzed using a flow cytometer. The other steps are the same as in Embodiment 2.4 and Embodiment 10.

PC12 cells [2] = test: MTT assay, Aβ1-42-induced cytotoxicity in PC12 cells; assay type: cell-based; conditions: 1 μM Aβ1-42 for 24 hours
Description: PC12 cells were cultured in DMEM (Dulbecco's Modified Eagle's) medium supplemented with 10% fetal bovine serum (FBS) and 100 μg/ml streptomycin in a humidified incubator 5% CO2 at 37° C. The cells were seeded in 96-well plates, and then treated with Aβ1-42a and artemether. MTT assay was used to access cell viability. MTT (3-(4,5-dimethylthiazole-2)-2,5-diphenyltetrazolium bromide) the detection principle relies on the enzymatic reduction of MTT to water-insoluble purple crystals-formazan particles, which is catalyzed by mitochondrial succinate dehydrogenase produced in living cells. The light absorption value is measured by an enzyme-linked immunoassay at 570 nm wavelength allowing to determine the number of living cells based on the amount of formazan produced. In short, PC12 cells were seeded in 96-well plates. In the next day the medium was replaced with fresh DMEM, and the cells pretreated with different concentrations of artemether or untreated followed by incubation with 1 μM Aβ1-42 for 24 hours. After 24 hours, MTT (0.5 mg/mL) was added to each well and further incubated for another 3 hours at 37° C. After incubation, the cells and MTT formazan crystals were dissolved with DMSO, and the absorbance was measured at 570 nm. Cell viability was calculated as a percentage of the control group.

SMILES	effect on phosphorylation of AMPK and GSK3β (ser9) induced by artemether (PC12 cells [1]; Western blot, GAPDH as internal control)	effect on the protection by artemether from Aβ1-42-induced apoptosis (flow cytometry) (PC12 cells [1]; compound C pretreatment with artemether, Aβ1-42 (1 μM))	effect on the cell survival effect of artemether (cell viability, MTT) (PC12 cells [1]; compound C pretreatment with artemether, Aβ1-42 (1 μM) for 24 hours)	effective dose for protection from Aβ1-42-induced cytotoxicity (PC12 cells [2])	protection from Aβ1-42-induced cytotoxicity (cell viability, MTT) (PC12 cells [2]; artemether pretreatment)
c1cc(-c2cnn3cc(-c4ccc(OCCN5CCCCC5)cc4)cnc23)ccn1 [compound C]	reversed the phosphorylation of AMPK and GSK3β (ser9) induced by artemether	alleviated the protective effect of artemether on Aβ1-42-induced apoptosis	abolished the elevated cell survival effect of artemether		
CO[C@H]1O[C@@H]2O[C@@]3(C)CC[C@H]4[C@H](C)CC[C@@H]([C@H]1C)[C@@]24OO3 [artemether]				about 10 μM	protected PC12 cells from Aβ1-42-induced cytotoxicity in a concentration-dependent manner
